Earlier results, collected in patent US6420552B1, “Syntheses of 4-alkyl chromogenic glycosides and 7-alkyl chromogenic glycosides of N-acetylneuraminic acids” (priority 1999, dated 2002).

Legend:
[1] = tested on: neuraminidase activity of parainfluenza types 1 and 2; settings: substrate activity, result in words
[2] = tested on: neuraminidase activity of influenza types A and B; settings: substrate activity, result in words
[3] = tested on: respiratory syncytial adenovirus; settings: substrate activity, result in words
[4] = biological target: neuraminidase from Vibrio cholerae (Vibrio cholerae serotype O1, UniProt P0C6E9); settings: 4-methylumbelliferyl α ketosides
Chain of neuraminidase from Vibrio cholerae (P0C6E9 25-781): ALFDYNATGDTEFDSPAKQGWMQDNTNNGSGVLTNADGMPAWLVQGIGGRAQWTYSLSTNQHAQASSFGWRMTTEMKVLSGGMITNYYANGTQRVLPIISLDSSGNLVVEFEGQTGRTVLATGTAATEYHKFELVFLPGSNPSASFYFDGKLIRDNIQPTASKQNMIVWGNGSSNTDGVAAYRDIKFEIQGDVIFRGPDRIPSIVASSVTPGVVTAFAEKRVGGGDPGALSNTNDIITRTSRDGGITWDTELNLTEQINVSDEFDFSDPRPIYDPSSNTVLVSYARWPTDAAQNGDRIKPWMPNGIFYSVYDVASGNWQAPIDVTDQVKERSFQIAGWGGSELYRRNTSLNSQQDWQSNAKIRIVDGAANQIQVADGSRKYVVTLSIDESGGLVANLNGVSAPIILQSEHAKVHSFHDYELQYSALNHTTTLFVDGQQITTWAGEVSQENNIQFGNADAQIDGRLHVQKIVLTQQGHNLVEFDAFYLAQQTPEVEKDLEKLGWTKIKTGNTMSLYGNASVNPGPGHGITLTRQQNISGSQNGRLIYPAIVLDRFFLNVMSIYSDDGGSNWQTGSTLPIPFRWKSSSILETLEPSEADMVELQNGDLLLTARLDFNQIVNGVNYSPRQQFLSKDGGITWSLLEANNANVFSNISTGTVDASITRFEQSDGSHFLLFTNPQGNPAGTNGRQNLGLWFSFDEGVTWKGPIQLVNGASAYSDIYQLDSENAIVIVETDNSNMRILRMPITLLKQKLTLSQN

| Compound | hydrolysis / colour development by neuraminidase activity of parainfluenza types 1 and 2 [1] | hydrolysis / colour development by neuraminidase activity of influenza types A and B [2] | hydrolysis by respiratory syncytial adenovirus [3] | glycosidic hydrolysis by neuraminidase from Vibrio cholerae [4] |
| --- | --- | --- | --- | --- |
| 5-bromo-3-indolyl 4-O-methyl Neu5Ac ketoside | acted upon | acted upon | not at all | – |
| CC(=O)N[C@@H]1CCC(O)(C(=O)O)O[C@H]1C[C@H](O)CO (stereo partly shown) [4,7-dideoxy Neu5Ac] | – | – | – | significantly slowed |
| COC1CC(Oc2c[nH]c3ccc(Br)cc23)(C(=O)O)OC(C(OC)C(O)CO)C1NC(C)=O (stereo not shown) [5-bromo-3-indolyl 4,7-di-O-methyl Neu5Ac ketoside] | – | selectively hydrolyzed | – | – |
| CC(=O)N[C@H]1[C@H]([C@@H](O)[C@@H](O)CO)OC(O)(C(=O)O)C[C@@H]1O (stereo partly drawn) [7,8-(bis)epi Neu5Ac] | – | – | – | significantly slowed |
| CC(=O)N[C@H]1[C@H](C[C@H](O)CO)OC(O)(C(=O)O)C[C@@H]1O (stereo partly shown) [7-deoxy Neu5Ac] | – | – | – | significantly slowed |
